Source: BigSolDB 2.1

CC(=O)[C@@]12O[C@@H]1C[C@H]1[C@@H]3CCC4=CC(=O)CC[C@]4(C)[C@H]3CC[C@@]12C
Details	solubility (mole fraction)
in DMSO, 312.45 K	0.00539
in DMSO, 315.5 K	0.00572
in DMSO, 318.35 K	0.00657
in DMSO, 322.35 K	0.00756
in DMSO, 326.5 K	0.0087
in DMSO, 328.65 K	0.00937
in DMSO, 331.2 K	0.0101
in DMSO, 334.9 K	0.0115
in DMSO, 339.15 K	0.0135
in DMSO, 343.95 K	0.0161
in DMSO, 348.35 K	0.0188
in DMSO, 353.45 K	0.0223
in isopropanol, 296.65 K	0.00307
in isopropanol, 299.55 K	0.00341
in isopropanol, 303.25 K	0.00405
in isopropanol, 306.35 K	0.00486
in isopropanol, 311.75 K	0.00598
in isopropanol, 314.8 K	0.00689
in isopropanol, 317.85 K	0.00752
in isopropanol, 322.95 K	0.00992
in isopropanol, 325.6 K	0.011
in isopropanol, 328.75 K	0.0125
in isopropanol, 333.25 K	0.0152
in isopropanol, 337.45 K	0.0177
in n-butanol, 300.85 K	0.00412
in n-butanol, 303.9 K	0.00473
in n-butanol, 306.75 K	0.00543
in n-butanol, 309.85 K	0.00624
in n-butanol, 314.25 K	0.00765
in n-butanol, 319.18 K	0.00919
in n-butanol, 323.55 K	0.0109
in n-butanol, 328.05 K	0.0134
in n-butanol, 332.75 K	0.0162
in n-butanol, 336.66 K	0.019
in n-butanol, 340.3 K	0.0219
in n-butanol, 343.5 K	0.0244
in n-propanol, 299.15 K	0.00349
in n-propanol, 304.05 K	0.00459
in n-propanol, 307.5 K	0.00524
in n-propanol, 311.55 K	0.00623
in n-propanol, 313.7 K	0.00684
in n-propanol, 316.25 K	0.00769
in n-propanol, 320.65 K	0.00908
in n-propanol, 324.25 K	0.0105
in n-propanol, 328.25 K	0.0122
in n-propanol, 332.05 K	0.0143
in n-propanol, 335.25 K	0.0165
in n-propanol, 340.6 K	0.0203

CC(=O)[C@@]12O[C@@H]1C[C@H]1[C@@H]3CCC4=CC(=O)CC[C@]4(C)[C@H]3[C@H](O)C[C@@]12C
Details	solubility (mole fraction)
in 1,4-dioxane, 298 K	0.00293
in 1,4-dioxane, 302.75 K	0.00353
in 1,4-dioxane, 306.39 K	0.00408
in 1,4-dioxane, 310.55 K	0.00447
in 1,4-dioxane, 314.75 K	0.00518
in 1,4-dioxane, 317.25 K	0.0055
in 1,4-dioxane, 320.35 K	0.00605
in 1,4-dioxane, 325.05 K	0.00687
in 1,4-dioxane, 328.55 K	0.00765
in 1,4-dioxane, 332.05 K	0.00845
in 1,4-dioxane, 335.35 K	0.00932
in 1,4-dioxane, 340.15 K	0.0105
in DMSO, 297.75 K	0.00423
in DMSO, 301.3 K	0.00515
in DMSO, 311.06 K	0.00772
in DMSO, 315.15 K	0.00843
in DMSO, 319.05 K	0.00966
in DMSO, 324.25 K	0.0112
in DMSO, 327.15 K	0.0126
in DMSO, 329.55 K	0.0141
in DMSO, 333.67 K	0.016
in DMSO, 337.43 K	0.0178
in DMSO, 340.25 K	0.0196
in DMSO, 344.65 K	0.0228
in isopropanol, 297.95 K	0.000542
in isopropanol, 300.25 K	0.000643
in isopropanol, 303.45 K	0.000717
in isopropanol, 308.05 K	0.000952
in isopropanol, 312.65 K	0.00126
in isopropanol, 316.35 K	0.00147
in isopropanol, 320.75 K	0.0019
in isopropanol, 323.85 K	0.00212
in isopropanol, 327.45 K	0.00262
in isopropanol, 331.95 K	0.00311
in isopropanol, 335.65 K	0.00368
in isopropanol, 340.25 K	0.00456
in n-butanol, 298.75 K	0.000597
in n-butanol, 304.45 K	0.000775
in n-butanol, 307.35 K	0.000935
in n-butanol, 310.75 K	0.00113
in n-butanol, 315.67 K	0.00143
in n-butanol, 320.75 K	0.00177
in n-butanol, 324.35 K	0.00205
in n-butanol, 328.55 K	0.00237
in n-butanol, 331.65 K	0.00268
in n-butanol, 334.15 K	0.00304
in n-butanol, 336.45 K	0.00334
in n-butanol, 340.15 K	0.00384
in n-propanol, 300.5 K	0.000796
in n-propanol, 303.25 K	0.000933
in n-propanol, 306.75 K	0.00109
in n-propanol, 309.9 K	0.00125
in n-propanol, 312.7 K	0.00142
in n-propanol, 317.15 K	0.00172
in n-propanol, 321.67 K	0.00208
in n-propanol, 324.85 K	0.00235
in n-propanol, 327.95 K	0.0027
in n-propanol, 332.65 K	0.00322
in n-propanol, 336.85 K	0.00382
in n-propanol, 341.65 K	0.00463
